In this assay the target is Programmed cell death 1 ligand/protein 1 (Homo sapiens, UniProt Q9NZQ7+Q15116). The assay is described as follows: Activity of Compounds to Inhibit PD-1/PD-L1 Interaction.

Data on 6 compounds can be found in BindingDB's records for patent US20230303494 (Academy of Military Medical Sciences, 2023).

Programmed cell death 1 ligand/protein 1, sequence (Q9NZQ7 whole entry): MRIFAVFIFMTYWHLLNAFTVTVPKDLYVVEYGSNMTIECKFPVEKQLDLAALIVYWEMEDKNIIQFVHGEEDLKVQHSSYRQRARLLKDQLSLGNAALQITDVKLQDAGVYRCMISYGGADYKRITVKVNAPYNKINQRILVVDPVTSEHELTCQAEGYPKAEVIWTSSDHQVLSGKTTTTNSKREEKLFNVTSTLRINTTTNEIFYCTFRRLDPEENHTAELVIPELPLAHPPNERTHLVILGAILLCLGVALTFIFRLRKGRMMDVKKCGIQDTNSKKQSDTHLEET
Programmed cell death 1 ligand/protein 1, sequence (Q15116 whole entry): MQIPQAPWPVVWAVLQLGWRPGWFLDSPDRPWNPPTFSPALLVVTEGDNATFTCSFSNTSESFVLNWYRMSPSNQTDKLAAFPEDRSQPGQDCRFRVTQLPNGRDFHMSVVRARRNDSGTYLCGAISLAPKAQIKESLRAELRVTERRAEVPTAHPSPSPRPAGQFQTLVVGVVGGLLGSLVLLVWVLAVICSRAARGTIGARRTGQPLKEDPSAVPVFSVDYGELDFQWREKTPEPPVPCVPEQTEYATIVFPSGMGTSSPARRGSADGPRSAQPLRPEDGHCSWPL

In general, IC50 refers to the concentration at which inhibition is half-maximal. Turning to `N#Cc1cncc(COc2cc(NCc3cccc(-c4ccccc4)c3Br)ccc2CNC(CO)C(=O)O)c1` (stereo unspecified) [US20230303494, Compound 31], the half-inhibitory concentration (IC50) was found to be 206 nM. This counts as sub-micromolar.

`Cc1c(CNc2cc(OCc3cncc(C#N)c3)c(CNC(CO)C(=O)O)cc2Cl)cccc1-c1ccccc1` (stereo unspecified) [US20230303494, Compound 13] yielded an IC50 of 26 nM.

`COc1cc(NCc2cccc(-c3ccccc3)c2C)c(C)cc1CNC(CO)C(=O)O` (stereo unspecified) [US20230303494, Compound 14] had an IC50 of 253 nM.

As for `Cc1cc(CNC(CO)C(=O)O)c(OCc2cncc(C#N)c2)cc1NCc1cccc(-c2ccccc2)c1Br` (stereo unspecified) [US20230303494, Compound 32], the IC50 was 31 nM.

`Cc1cc(CNC(CO)C(=O)O)c(OCc2cncc(C#N)c2)cc1NCc1cccc(-c2ccc3c(c2)OCCO3)c1C` (stereo unspecified) [US20230303494, Compound 35] had an IC50 of 44 nM.

Take `Cc1c(CNc2cc(OCc3cncc(C#N)c3)c(CNC(CO)C(=O)O)cc2Cl)cccc1-c1ccc2c(c1)OCCO2` (stereo unspecified) [US20230303494, Compound 36]: the IC50 amounted to 131 nM.
